Source: publication PMC7144209, “Design, synthesis and anticancer activity of naphthoquinone derivatives” (Journal of Enzyme Inhibition and Medicinal Chemistry, 2020)

Columns and labels:
SMMC-7721 = assay: MTT cell viability assay, SMMC-7721 cells; type: cell-based; conditions: Homo sapiens, 48 h, n = 3
Procedure: (§1) MGC-803, SGC-7901, U87 and SMMC-7721 cell lines were cultured in DMEM supplemented with 10% foetal bovine serum, 100 IU/mL penicillin/streptomycin. The cells were incubated in an atmosphere containing 5% CO2 at 37 °C.
(§2) MGC-803, SGC-7901, U87 and SMMC-7721 cells were plated in 96-well plate at 7000 per well. Cells were incubated with the different concentrations of the compounds for 48 h. Subsequently, MTT (0.5 mg/mL) were used to test the cell viability, then 150 μL DMSO was added to each well after cells were incubated for 4 h and the absorbance was measured at 492 nm.

L02 = assay: MTT cell viability assay, L02 cells; type: cell-based; conditions: Homo sapiens, n = 3
U87 = assay: MTT cell viability assay, U87 cells; type: cell-based; conditions: Homo sapiens, U-87 MG, 48 h, n = 3
Procedure: as §1, §2

MGC-803 = assay: MTT cell viability assay, MGC-803 cells; type: cell-based; conditions: Homo sapiens, MGC-803, 48 h, n = 3
Procedure: as §1, §2

SGC-7901 = assay: MTT cell viability assay, SGC-7901 cells; type: cell-based, human; conditions: Homo sapiens, SGC-7901, 48 h, n = 3
Procedure: as §1, §2

[1] = system: SGC-7901, MGC-803, SMMC-7721, U-87 cell lines; assay: MTT anticancer activity, summary in words over the cell line panel; type: cell-based; conditions: MTT assay
Procedure: as §2
Compounds 1–24 were detected for anticancer activities against SGC-7901, MGC-803, SMMC-7721, U-87 cell lines in vitro by the MTT assay, and ADM was used as the positive control. From Table 1, when the phenolic hydroxyls of naphthoquinone moiety were converted to ether, the activity was missing. […] So colony formation assay of this compound (Figure 4) was used to investigate the effect of it on cell proliferation in SGC-7901 cells. The experiment examined the ability for producing colonies after the cells were treated with the cell death agents[35]^,[36].

IC50 (SMMC-7721) [µM]	IC50 (U87) [µM]	IC50 (MGC-803) [µM]	IC50 (SGC-7901) [µM]	SMILES	IC50 (L02) [µM]	anticancer activity (in words) [1]
12.3 ± 0.1	4.45 ± 0.66	3.1 ± 0.1	8.6 ± 2.5	CC(C)=CCC(OC(=O)CCC(=O)N1CCCc2ccccc21)C1=CC(=O)c2c(O)ccc(O)c2C1=O (stereo not drawn) [Compound 9, 1-(5,8-dihydroxy-1,4-dioxo-1,4-dihydronaphthalen-2-yl)-4-methylpent-3-en-1-yl-4-(3,4-dihydroquinolin-1(2H)-yl)-4-oxobutanoate]	12.1 ± 0.8	good activity
9.5 ± 0.8	3.75 ± 0.77	8.4 ± 3.1	2.25 ± 1.5	CC(C)=CCC(OC(=O)CCC(=O)Nc1ccc(F)c(C(F)(F)F)c1)C1=CC(=O)c2c(O)ccc(O)c2C1=O (stereo not drawn) [Compound 11, 1-(5,8-dihydroxy-1,4-dioxo-1,4-dihydronaphthalen-2-yl)-4-methylpent-3-en-1-yl-4-((4-fluoro-3-(trifluoromethyl)phenyl)amino)-4-oxobutanoate]	4 ± 0.1	good activity
18.6 ± 3.6	5.2 ± 1.4	3.5 ± 1.4	13.3 ± 0.6	CC(C)=CCC(OC(=O)CCC(=O)NCCc1ccc(F)cc1)C1=CC(=O)c2c(O)ccc(O)c2C1=O (stereo not drawn) [Compound 20, 1-(5,8-dihydroxy-1,4-dioxo-1,4-dihydronaphthalen-2-yl)-4-methylpent-3-en-1-yl 4-((4-fluorophenethyl)amino)-4-oxobutanoate]	12.3 ± 0.5	good activity
